In article PMC12488667, “Orodispersible films containing chestnut shell phenolics for buccal delivery: a preclinical approach for oral mucositis prevention” (Frontiers in Medical Technology, 2025):
Several values for one entry are separate records, joined by “and”; a condition that tells them apart may be missing. Identical values can stand only once. Like-named read-outs stand apart in the source and are kept apart here. Marks after values point to notes of the source that are not given here.

What was measured:
[1] = Ex vivo permeation, Franz cells; assay type: in vitro ADME, porcine
Protocol: Porcine buccal mucosa was used to evaluate the buccal permeation of the phenolic compounds in the extract and the CS-loaded OFs (n = 9). The porcine buccal mucosa was purchased in a local butcher shop, not requiring ethical approval. A Franz cell assembly (9 mm clear jacketed Franz cell with a flat ground joint, 5 ml receptor volume, and permeation area of 0.785 cm^2; PermeGear, Inc., USA) was used. This experiment followed the methodology described by Rodrigues et al. ([32]). In the Franz apparatus, the porcine buccal mucosa was positioned with the cheek side facing the donor chamber, which contained 500 µl (1,000 μg/ml) of the CS extract or the CS-loaded OFs (two square films (2 × 2 cm) with […] of thickness were dissolved in 4 ml of artificial saliva; donor concentration was normalized to ensure equivalence between the extract solution and the film formulation). The receptor chamber was filled with 5 ml PBS, maintained at 37°C, and stirred continuously at 150 rpm. The volume was maintained through the experiments.
(§1) The identification and quantification of the phenolic compounds present in the extract and the OFs, as well as the compounds that permeated from the OFs through in vitro and ex vivo assays, were conducted using an LC-ESI-LTQ-Orbitrap-HRMS equipment with an Accela chromatograph (Thermo Scientific, Hemel Hempstead, UK), a photodiode array detector, a quaternary pump, and a temperature-controlled autosampler coupled to a high-resolution LTQ Orbitrap Velos mass spectrometer (Thermo Scientific, Hemel Hempstead, UK) with an ESI source in negative mode ([33], [34]). The system was controlled using the Xcalibur v3.0 software (ThermoFisher Scientific, Hemel Hempstead, UK). Elution was performed on an Acquity™ UPLC® BEH C18 Column (2.1 × 100 mm, i.d., 1.7 µm particle size, Waters Corporation, Wexford, Ireland) maintained at 30°C.
(§2) Gradient elution was performed with water (A) and acetonitrile (B), both with 0.1% formic acid, with a flow rate and injection volume of 450 µl/min and 5 µl, respectively. The solvent gradient (v/v) of B [t (min), %B] was set as follows: (0, 0), (2, 0), (4, 30), (8, 100), (10, 100), (11, 0), and (14, 0). The samples were analyzed in the full scan mode at a resolving power of 30,000 and m/z 600. Data-dependent MS/MS events were acquired at a resolution of 15,000. Most intense ions were detected via the FTMS mode-triggered data-dependent acquisition mode. Ions that were not sufficiently intense for a data-dependent scan were explored in MSn mode. Precursors were fragmented by collision-induced dissociation using a C-trap with a normalized collision energy (35 V) and an activation time of 10 ms. […] Compounds whose theoretical [M–H]^− values exceeded the MS¹ acquisition range (m/z 100–600) were annotated based on characteristic MSⁿ fragment ions detected within the scan window.
Quantitative analysis was performed by using a validated chromatographic method ([38]).

TR146 cells = assay: In vitro permeation, buccal model; assay type: in vitro ADME, human
Protocol: The in vitro permeability of the bioactive compounds present in OFs (n = 9) was determined using a co-culture model composed of TR146 ([31]). The extract and the CS-loaded OFs were added to the apical side of the model as a stock solution. […] The Transepithelial Electrical Resistance (TEER) of the model was evaluated before, during, and at the end of the permeability assay using an EVOM Epithelial Volthometer equipped with a chopstick electrode (World Precision Instruments, Sarasota, FL, USA).
as §1, §2

SMILES	Quantification of permeated compounds ([1]; CS extract)	Quantification of permeated compounds ([1]; CS-loaded OFs)	Permeation (%) ([1]; from CS extract, 15 min)	Permeation (%) ([1]; from CS extract, 30 min)	Quantification of permeated compounds (TR146 cells; CS extract)	Quantification of permeated compounds (TR146 cells; CS-loaded OFs)	Permeation (%) (TR146 cells; from CS extract, 60 min)	Permeation (%) (TR146 cells; from CS extract, 15 min)	Permeation (%) (TR146 cells; from CS extract, 30 min)	Permeation (%) (TR146 cells; from CS extract, 45 min)	Permeation (%) (TR146 cells; from CS extract, 90 min)	Permeation (%) (TR146 cells; from CS extract, 120 min)	Permeation (%) (TR146 cells; from CS extract, 180 min)	Permeation (%) (TR146 cells; from CS extract, 240 min)	further results
N[C@@H](Cc1ccccc1)C(=O)O [L-Phenylalanine]	5.52 ± 0.24^b mg/ml	0.42 ± 0.01^a mg/g film	8.67 ± 0.03^a %	8.57 ± 1.47^a %	–	–	–	–	–	–	–	–	–	–	–
O=C(CCc1ccc(O)cc1)c1c(O)cc(O)cc1O[C@@H]1O[C@H](CO)[C@@H](O)[C@H](O)[C@H]1O [Phlorizin]	1.93± 0.06^a mg/ml	0.87 ± 0.06^a mg/g film	18.69 ± 0.04^a %	17.60 ± 0.30^a %	–	–	–	–	–	–	–	–	–	–	–
O=C(O)CCCCC(=O)O [Adipic acid]	93.48 ± 2.39^b mg/ml	11.84 ± 2.11^a mg/g film	11.41 ± 0.03^a %	9.47 ± 0.07^a %	–	–	–	–	–	–	–	–	–	–	Permeation (%) ([1]; from CS-loaded OFs, 15 min): 98.93 ± 2.05^b %; Permeation (%) ([1]; from CS-loaded OFs, 30 min): 97.59 ± 2.36^b %
O=c1c(O[C@@H]2O[C@H](CO)[C@H](O)[C@H](O)[C@H]2O)c(-c2ccc(O)c(O)c2)oc2cc(O)cc(O)c12 [Quercetin 3-O-galactoside]	–	–	–	–	0.36 ± 0.01^a mg/ml	0.36 ± 0.01^a mg/g film	49.94 ± 0.98^a %	–	–	–	–	–	–	–	–
COc1cc(C=O)ccc1O [Vanillin]	–	–	–	–	0.70 ± 0.02^a mg/ml	0.44 ± 0.05^a mg/g film	28.43 ± 0.41^b %	8.10 ± 0.02^a %	23.12 ± 0.56^b %	28.35 ± 0.83^b %	42.18 ± 1.08^c %	27.71 ± 0.72^a %	53.91 ± 1.07^d %	52.90 ± 0.73^d %	–
N[C@@H](Cc1c[nH]c2ccccc12)C(=O)O [L-Tryptophan]	4.18 ± 0.26^a mg/ml	1.18 ± 0.09^a mg/g film	37.21 ± 0.01^a %	27.24 ± 0.23^a %	–	–	–	–	–	–	–	–	–	–	–
COc1cc(-c2oc3cc(O)cc(O)c3c(=O)c2O)ccc1O [Isorhamnetin]	–	–	–	–	0.38 ± 0.04^a mg/ml	0.38 ± 0.01^a mg/g film	99.10 ± 2.96^a %	99.26 ± 2.34^a %	99.73 ± 1.83^a %	98.36 ± 3.74^a %	99.00 ± 4.70^a %	98.36 ± 1.07^a %	99.08 ± 2.69^a %	98.36 ± 1.91^a %	Permeation (%) (TR146 cells; from CS extract, 240 min, listed as isorhamnetin): 98.36%; Permeation (%) (TR146 cells; from CS-loaded OFs, 15 min): 105.62 ± 3.71^a %; Permeation (%) (TR146 cells; from CS-loaded OFs, 30 min): 105.51 ± 3.25^a %; Permeation (%) (TR146 cells; from CS-loaded OFs, 45 min): 105.05 ± 2.24^a %; Permeation (%) (TR146 cells; from CS-loaded OFs, 60 min): 101.34 ± 2.95^a %; Permeation (%) (TR146 cells; from CS-loaded OFs, 90 min): 98.29 ± 2.14^a %; Permeation (%) (TR146 cells; from CS-loaded OFs, 120 min): 99.38 ± 1.47^a %; Permeation (%) (TR146 cells; from CS-loaded OFs, 180 min): 98.29 ± 1.94^a %; Permeation (%) (TR146 cells; from CS-loaded OFs, 240 min): 100.20 ± 3.56^a %; Permeation (%) (TR146 cells; from CS-loaded OFs, 240 min, listed as isorhamnetin): 100.20%
O[C@H]1[C@H](O)[C@@H](O)[C@H](O)[C@@H](O)[C@H]1O [Myo-Inositol]	–	–	–	–	0.54 ± 0.01^a mg/ml	0.42 ± 0.01^a mg/g film	33.80 ± 0.08^a^,^b %	39.51 ± 0.87^a^,^b %	79.23 ± 1.43c %	12.98 ± 0.01^a %	30.46 ± 0.05^a^,^b %	41.34 ± 1.01^a^,^b %	25.02 ± 0.09^a^,^b %	56.50 ± 0.37^c %	–
O=C(O)CCCCCC(=O)O [Pimelic acid]	26.17 ± 2.25^a mg/ml	30.41 ± 0.01^a mg/g film	65.10 ± 1.87^a %	67.06 ± 2.58^a %	–	–	–	–	–	–	–	–	–	–	Permeation (%) ([1]; from CS-loaded OFs, 15 min): 76.61 ± 4.85^a %
COC(=O)c1cc(O)c(O)c(O)c1 [Methyl gallate]	–	–	–	–	0.37 ± 0.01^a mg/ml	0.37 ± 0.03^a mg/g film	–	37.24 ± 0.04^a %	–	–	–	–	–	–	–
O=C1CC[C@@H](C(=O)O)N1 [Pyroglutamic acid]	–	–	–	–	41.32 ± 2.63^b mg/ml	28.93 ± 1.88^a mg/g film	23.34 ± 0.88^b %	13.92 ± 0.12^a %	15.39 ± 1.05^a %	18.22 ± 1.41^b %	22.87 ± 1.52^b %	23.68 ± 1.84^b %	21.35 ± 0.97^b %	28.47 ± 2.52^b %	Permeation (%) (TR146 cells; from CS-loaded OFs, 15 min): 17.03 ± 0.23^a %; Permeation (%) (TR146 cells; from CS-loaded OFs, 30 min): 39.63 ± 0.24^a^,^b %; Permeation (%) (TR146 cells; from CS-loaded OFs, 45 min): 43.32 ± 1.12^a^,^b %; Permeation (%) (TR146 cells; from CS-loaded OFs, 60 min): 46.32 ± 2.65^a^,^b %; Permeation (%) (TR146 cells; from CS-loaded OFs, 90 min): 65.40 ± 0.82^b %; Permeation (%) (TR146 cells; from CS-loaded OFs, 120 min): 66.95 ± 3.71^b %; Permeation (%) (TR146 cells; from CS-loaded OFs, 180 min): 103.24 ± 2.71^c %; Permeation (%) (TR146 cells; from CS-loaded OFs, 240 min): 111.34% and 111.34 ± 1.62^c %
O=c1oc2c(O)c(O)cc3c(=O)oc4c(O)c(O)cc1c4c23 [Ellagic acid]	7.15 ± 2.50^b mg/ml	1.27 ± 0.05^a mg/g film	10.61 ± 0.08^a %	6.26% and 6.26 ± 0.75^a %	–	–	–	–	–	–	–	–	–	–	Permeation (%) ([1]; from CS-loaded OFs, 15 min): 35.46 ± 0.32^b %; Permeation (%) ([1]; from CS-loaded OFs, 30 min): 60.75% and 60.75 ± 1.62^c %
COc1cc(C[C@@H](CO)[C@H](CO)Cc2ccc(O)c(OC)c2)ccc1O [Secoisolariciresinol]	–	–	–	–	–	–	–	–	–	–	–	–	–	–	Permeation (%) (TR146 cells): 22.32 ± 0.12^a %
Oc1cc(O)c2c(c1)O[C@H](c1ccc(O)c(O)c1)[C@H](O)C2 [Epicatechin]	–	–	–	–	0.41 ± 0.03^a mg/ml	0.36 ± 0.02^a mg/g film	98.05 ± 3.81^a %	97.57 ± 1.07^a %	96.86 ± 2.25^a %	97.35 ± 1.74^a %	97.75 ± 5.73^a %	97.73 ± 6.01^a %	97.36 ± 2.57^a %	96.86 ± 1.86^a %	Permeation (%) (TR146 cells; from CS extract, 240 min, listed as epicatechin): 96.86%
